Among the test systems are DU-145 prostate; MCF7 breast; SK-MEL-2 melanoma; NCI-H522 lung; SF-295 CNS; SF-268 CNS; NCI-H226 lung; A549 NSCLC; SR leukemia; NCI-H23 lung.
What all share (assay): NCI anticancer screen, dose series, 48 h

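Five concentrations, 48 hours, 96-well plates. At the GI50, growth is halved. TGI: total growth inhibition.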

With `CC(=O)Nc1ccc(S(=O)(=O)N2C(=O)CCC2C(=O)Nc2ccccc2)cc1` (stereo not given), the GI50 was 3.46 µM in the assay with DU-145 prostate; 0.73 µM in the assay on MCF7 breast; 1.34 µM in the assay on SK-MEL-2 melanoma; 0.491 µM in the assay with NCI-H522 lung; 0.33 µM in the assay on SF-295 CNS; 3.82 µM in the assay on SF-268 CNS. For the same compound, the GI50 is 3.16 µM in the assay with NCI-H226 lung, 0.721 µM in the assay on A549 NSCLC, 0.913 µM in the assay on SR leukemia and 2.23 µM with NCI-H23 lung. The TGI in the assay on DU-145 prostate is 19.2 µM; in the assay on MCF7 breast it was 14.7 µM; in the assay with SK-MEL-2 melanoma it was 9.05 µM; with NCI-H522 lung it was 6.27 µM; with SF-295 CNS, 3.41 µM; in the assay on SF-268 CNS, 23.3 µM. Besides, the TGI in the assay with NCI-H226 lung stood at 20.9 µM; with A549 NSCLC, 19.2 µM; with SR leukemia it was 12.1 µM; with NCI-H23 lung, 18.6 µM.

Turning to `CC(C)OC(=O)OCOP(=O)(OCOC(=O)OC(C)C)C1CCCN(O)C1=O` (stereo not given), the GI50 was 3.83 µM in the assay with DU-145 prostate; 1.52 µM in the assay with MCF7 breast; 3.1 µM with SK-MEL-2 melanoma; 0.768 µM in the assay on NCI-H522 lung; 7.14 µM with SF-295 CNS; 3.07 µM with SF-268 CNS. Further, the GI50 in the assay with NCI-H226 lung was 1.36 µM; in the assay on A549 NSCLC it was 4.01 µM; with SR leukemia, 1.25 µM; in the assay with NCI-H23 lung, 8.47 µM. For the same compound, the TGI with DU-145 prostate was more than 100 µM; with MCF7 breast it was more than 100 µM; with SK-MEL-2 melanoma, 20.4 µM; in the assay on NCI-H522 lung, more than 100 µM; in the assay on SF-295 CNS it was more than 100 µM; in the assay on SF-268 CNS, more than 100 µM. Besides, the TGI with NCI-H226 lung, in the assay with A549 NSCLC, in the assay on SR leukemia and in the assay on NCI-H23 lung was more than 100 µM throughout.

As to `CCN(CC)c1ccc(C=C2C(=O)NC(=S)NC2=O)cc1`, the GI50 is 4.18 µM in the assay with DU-145 prostate; 3.85 µM with MCF7 breast; 2.73 µM in the assay on SK-MEL-2 melanoma; 1.77 µM with NCI-H522 lung; 6.21 µM with SF-295 CNS; 3.83 µM in the assay with SF-268 CNS. Further, the GI50 with NCI-H226 lung was 3.24 µM; in the assay on A549 NSCLC, 12.1 µM; with SR leukemia it was 1.69 µM; in the assay on NCI-H23 lung, 2.98 µM. The TGI amounted to 13 µM with DU-145 prostate; 13.2 µM in the assay with MCF7 breast; 7.05 µM in the assay on SK-MEL-2 melanoma; 4.29 µM in the assay on NCI-H522 lung; 21.2 µM in the assay on SF-295 CNS; 13.7 µM in the assay on SF-268 CNS. Moreover, the TGI in the assay on NCI-H226 lung turned out to be 10.2 µM; in the assay on A549 NSCLC it was 28 µM; in the assay on SR leukemia it was 10.3 µM; in the assay on NCI-H23 lung, 9.72 µM.

Consider `CCN(CC)CCCC(C)Nc1ccnc2cc(OC)ccc12` (stereo not given), for which the GI50 in the assay on DU-145 prostate was 20.6 µM; in the assay on MCF7 breast, more than 100 µM; in the assay on SK-MEL-2 melanoma, 24.8 µM; with NCI-H522 lung it was 17.9 µM; in the assay with SF-295 CNS, 34.3 µM; in the assay with SF-268 CNS it was more than 100 µM. Also, the GI50 in the assay with NCI-H226 lung is 22.2 µM; in the assay on A549 NSCLC, 18.3 µM; in the assay on SR leukemia it was 24.1 µM; in the assay with NCI-H23 lung, 31.6 µM. For the same compound, the TGI in the assay on DU-145 prostate is 44.4 µM; in the assay on MCF7 breast, more than 100 µM; with SK-MEL-2 melanoma it was 52.9 µM; in the assay with NCI-H522 lung, 37.4 µM; with SF-295 CNS it was more than 100 µM; in the assay with SF-268 CNS it was more than 100 µM. For the same compound, the TGI was 46.6 µM in the assay on NCI-H226 lung, 35.5 µM with A549 NSCLC, more than 100 µM with SR leukemia and 96.3 µM in the assay with NCI-H23 lung.

On to `NC1=Nc2cc(OCCCCN3Cc4ccccc4C3)c(OCC3CC3)cc2C12CCCC2`, for which the GI50 is 3.24 µM in the assay on DU-145 prostate; 1.37 µM in the assay with MCF7 breast; 1.84 µM in the assay on SK-MEL-2 melanoma; 1.86 µM with NCI-H522 lung; 1.94 µM in the assay with SF-295 CNS; 1.78 µM in the assay on SF-268 CNS. The GI50 with NCI-H226 lung is 1.32 µM; in the assay on A549 NSCLC it was 1.99 µM; in the assay on SR leukemia, 1.61 µM; in the assay with NCI-H23 lung it was 2.15 µM. For the same compound, the TGI in the assay with DU-145 prostate was 11.4 µM; in the assay with MCF7 breast, 2.99 µM; in the assay with SK-MEL-2 melanoma, 3.49 µM; with NCI-H522 lung, 3.84 µM; in the assay on SF-295 CNS it was 3.83 µM; in the assay with SF-268 CNS, 6.42 µM. The TGI was 3.48 µM with NCI-H226 lung, 4.84 µM in the assay with A549 NSCLC, 4.48 µM in the assay on SR leukemia and 5.36 µM in the assay on NCI-H23 lung.

Take `CC1(C)CC[C@]2(C(=O)O)CC[C@]3(C)C(=CC[C@@H]4[C@@]5(C)C/C(=C/c6cccnc6)[C@H](O)C(C)(C)[C@@H]5CC[C@]43C)[C@@H]2C1`: the GI50 in the assay on DU-145 prostate was 10.7 µM; in the assay on MCF7 breast, 5.25 µM; in the assay with SK-MEL-2 melanoma it was 17 µM; in the assay with NCI-H522 lung, 8.97 µM; with SF-295 CNS, 4.3 µM; in the assay with SF-268 CNS it was 8.68 µM. Moreover, the GI50 with NCI-H226 lung is 8.63 µM; in the assay on A549 NSCLC, 3.65 µM; with SR leukemia, 13.2 µM; in the assay with NCI-H23 lung, 9.64 µM. The TGI with DU-145 prostate is more than 100 µM; in the assay on MCF7 breast, more than 100 µM; with SK-MEL-2 melanoma, 66.1 µM; with NCI-H522 lung, more than 100 µM; in the assay with SF-295 CNS it was 87.4 µM; in the assay with SF-268 CNS, more than 100 µM. Besides, the TGI in the assay on NCI-H226 lung is 63 µM; in the assay with A549 NSCLC, more than 100 µM; in the assay with SR leukemia it was more than 100 µM; in the assay with NCI-H23 lung it was more than 100 µM.

Turning to `N#CSc1c[nH]c2cccc(/C=C/C(=O)/C=C(O)/C=C/c3cccc4[nH]cc(SC#N)c34)c12`, the GI50 was 0.484 µM with DU-145 prostate; 0.254 µM in the assay on MCF7 breast; 0.829 µM in the assay on SK-MEL-2 melanoma; 0.093 µM in the assay on NCI-H522 lung; 0.746 µM in the assay on SF-295 CNS; 0.528 µM in the assay with SF-268 CNS. In addition, the GI50 in the assay on NCI-H226 lung is 0.607 µM; in the assay with A549 NSCLC it was 0.353 µM; with SR leukemia, 0.129 µM; with NCI-H23 lung, 0.426 µM. Besides, the TGI in the assay with DU-145 prostate was 0.986 µM; in the assay on MCF7 breast, 1.45 µM; with SK-MEL-2 melanoma, 1.93 µM; with NCI-H522 lung, 0.47 µM; with SF-295 CNS it was 2.29 µM; in the assay with SF-268 CNS, 1.86 µM. Further, the TGI was 1.34 µM in the assay with NCI-H226 lung, 2.78 µM in the assay on A549 NSCLC, more than 33.3 µM in the assay with SR leukemia and 1.89 µM with NCI-H23 lung.
